The target in assay [1] is Histone-lysine N-methyltransferase KMT5C (Homo sapiens) (UniProt Q86Y97). Briefly: Inhibition of human SUV420H2 using Biotin-tagged H4K20me1 and [3H-SAM] as substrate incubated for 2 hrs by scintillation proximity assay. Background: Scintillation proximity formats need no separation of bound from free tracer.
Assay [2] deals with B-cell. Put plainly: Induction of DNA repair in mouse B cells assessed as inhibition in H4K20me2 level at 1 to 10 uM incubated for 96 hrs by western blot analysis. In kind it is functional, cell-based. The following applies: dose 1-10 µM. (Immunoblotting shows a protein as a band on a membrane.)
In assay [3] the test system is B-cell. Briefly: Induction of DNA repair in mouse B cells assessed as inhibition in H4K20me3 level at 1 to 10 uM incubated for 96 hrs by western blot analysis. The class given is functional, cell-based. The following applies: dose 1-10 µM.
Assay [4] deals with Adenosine receptor A3 (Homo sapiens) (UniProt P0DMS8). Briefly: Inhibition of human Adenosine receptor A3 at 10 uM relative to control.
Assay [5] deals with C-C chemokine receptor type 1 (Homo sapiens) (UniProt P32246). Briefly: Inhibition of human C-C chemokine receptor type 1 at 10 uM relative to control.
Assay [6] deals with Beta-2 adrenergic receptor (Homo sapiens) (UniProt P07550). Put plainly: Inhibition of human Beta-2 adrenergic receptor at 10 uM relative to control.
Assay [7] addresses T1, 5-hydroxytryptamine receptor 1A (Homo sapiens) (UniProt P08908).
T1 sequence (whole entry): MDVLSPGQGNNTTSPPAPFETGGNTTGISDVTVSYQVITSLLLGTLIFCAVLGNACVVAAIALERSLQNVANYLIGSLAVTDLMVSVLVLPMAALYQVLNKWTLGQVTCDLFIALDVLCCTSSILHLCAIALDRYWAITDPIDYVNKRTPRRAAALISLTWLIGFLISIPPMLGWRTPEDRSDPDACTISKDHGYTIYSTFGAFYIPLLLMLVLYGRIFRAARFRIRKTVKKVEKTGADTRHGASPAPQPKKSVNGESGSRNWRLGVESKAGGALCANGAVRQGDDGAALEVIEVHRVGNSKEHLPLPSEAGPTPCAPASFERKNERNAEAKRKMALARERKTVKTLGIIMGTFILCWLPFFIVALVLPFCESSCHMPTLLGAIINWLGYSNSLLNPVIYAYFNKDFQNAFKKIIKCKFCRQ
Put plainly: Inhibition of human 5-HT1A at 10 uM relative to control.

For assay [8], the species on record is Homo sapiens. Briefly: Inhibition of human 5-HT3 at 10 uM relative to control.
Assay [9] addresses Beta-1 adrenergic receptor (Homo sapiens) (UniProt P08588). Put plainly: Inhibition of human Beta-1 adrenoceptor at 10 uM relative to control.
In assay [10] the target is D(2) dopamine receptor (Homo sapiens) (UniProt P14416). Put plainly: Inhibition of human D(2) dopamine receptor at 10 uM relative to control.
Assay [11] has as its target Histamine H1 receptor (Homo sapiens) (UniProt P35367). Briefly: Inhibition of human HH1R at 10 uM relative to control.
Assay [12] addresses Cholecystokinin receptor type A (Homo sapiens) (UniProt P32238). Briefly: Inhibition of human CCK1 at 10 uM relative to control.
For assay [13], the target named is 5-hydroxytryptamine receptor 2C (Homo sapiens) (UniProt P28335). Briefly: Inhibition of human 5-HT2C receptor expressed in HEK293T cells at 10 uM relative to control. In kind it is cell-based.
Assay [14] concerns the target D(1A) dopamine receptor (Homo sapiens) (UniProt P21728). Briefly: Inhibition of human D(1A) dopamine receptor expressed in HEK293T cells at 10 uM relative to control. In kind it is cell-based.
Assay [15] has as its target Sigma intracellular receptor 2 (Homo sapiens) (UniProt Q5BJF2). Put plainly: Inhibition of human Sigma intracellular receptor 2 at 10 uM relative to control. The class given is cell-based.
For assay [16], the target named is D(4) dopamine receptor (Homo sapiens) (UniProt P21917). Put plainly: Inhibition of human D(4) dopamine receptor in stable HEK cells at 10 uM relative to control. The class given is cell-based.
In assay [17] the target is Muscarinic acetylcholine receptor M5 (Homo sapiens) (UniProt P08912). Briefly: Inhibition of human Muscarinic acetylcholine receptor M5 expressed in stable Cricetulus griseus CHO cells at 10 uM relative to control. In kind it is cell-based.
The target in assay [18] is T2, Muscarinic acetylcholine receptor M2 (Homo sapiens) (UniProt P08172).
T2 sequence (whole entry): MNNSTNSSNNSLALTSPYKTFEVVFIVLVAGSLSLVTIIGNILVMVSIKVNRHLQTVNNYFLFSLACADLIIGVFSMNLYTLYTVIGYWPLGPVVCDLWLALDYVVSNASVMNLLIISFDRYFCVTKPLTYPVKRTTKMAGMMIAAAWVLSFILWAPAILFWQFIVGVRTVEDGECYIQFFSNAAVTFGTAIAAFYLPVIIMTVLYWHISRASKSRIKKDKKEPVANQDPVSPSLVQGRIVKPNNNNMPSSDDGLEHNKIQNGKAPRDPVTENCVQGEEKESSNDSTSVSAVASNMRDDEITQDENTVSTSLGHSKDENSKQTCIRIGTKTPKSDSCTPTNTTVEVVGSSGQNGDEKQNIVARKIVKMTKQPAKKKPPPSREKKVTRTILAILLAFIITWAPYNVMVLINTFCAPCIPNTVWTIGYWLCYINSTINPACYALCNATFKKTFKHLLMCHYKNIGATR
Briefly: Inhibition of human Muscarinic acetylcholine receptor M2 expressed in stable Cricetulus griseus CHO cells at 10 uM relative to control. In kind it is cell-based.

Assay [19] concerns the target 5-hydroxytryptamine receptor 6 (Homo sapiens) (UniProt P50406). Briefly: Inhibition of human 5-HT6 expressed in stable HEK cells at 10 uM relative to control. In kind it is cell-based.
Assay [20] addresses Alpha-2A adrenergic receptor (Homo sapiens) (UniProt P08913). Put plainly: Inhibition of human Alpha-2A adrenergic receptor in stable Canis lupus familiaris MDCK cells at 10 uM relative to control. In kind it is cell-based.
In assay [21] the target is Protein arginine N-methyltransferase 3 (Homo sapiens) (UniProt O60678). Put plainly: Inhibition of PRMT3 (unknown origin) using Biotin-tagged H4K20me1 and [3H-SAM] as substrate at 1 to 10 uM incubated for 2 hrs by scintillation proximity assay. Particulars: dose 1-10 µM.
The target of assay [22] is Histone-lysine N-methyltransferase SETD7 (Homo sapiens) (UniProt Q8WTS6). Briefly: Inhibition of SETD7 (unknown origin) using Biotin-tagged H4K20me1 and [3H-SAM] as substrate at 1 to 10 uM incubated for 2 hrs by scintillation proximity assay. Particulars: dose 1-10 µM.
Assay [23] deals with DNMT3A2/3L complex (Homo sapiens) (UniProt Q9Y6K1+Q9UJW3). Briefly: Inhibition of DNMT3A/3L (unknown origin) at 1 to 10 uM incubated for 1 hrs by scintillation proximity assay. The class given is protein-complex assay. The following applies: dose 1-10 µM.
The subject of assay [24] is U2OS. Briefly: Induction of DNA repair in human U2OS cells expressing I-SceI reporter assessed as change in HDR-mediated repair at 1 uM by flow cytometry analysis. The class given is functional, cell-based. Background: In flow cytometry, cells or beads pass a laser one at a time.
For assay [25], the system named is U2OS. Put plainly: Inhibition of colony formation in human U2OS cells at 1 uM incubated for 48 hrs in the presence of hydroxyurea by cell clonogenic assay. The class given is functional, cell-based.
The target in assay [26] is Mitogen-activated protein kinase 1 (Homo sapiens) (UniProt P28482). Put plainly: Inhibition of human ERK2 at 10 uM relative to control.
The target in assay [27] is Serine/threonine-protein kinase PAK 4 (Homo sapiens) (UniProt O96013). Put plainly: Inhibition of human PAK4 at 10 uM relative to control.

The source made the active and inactive calls. The rule behind the calls is not given here.

Chain of Adenosine receptor A3 (Homo sapiens) (P0DMS8 whole entry): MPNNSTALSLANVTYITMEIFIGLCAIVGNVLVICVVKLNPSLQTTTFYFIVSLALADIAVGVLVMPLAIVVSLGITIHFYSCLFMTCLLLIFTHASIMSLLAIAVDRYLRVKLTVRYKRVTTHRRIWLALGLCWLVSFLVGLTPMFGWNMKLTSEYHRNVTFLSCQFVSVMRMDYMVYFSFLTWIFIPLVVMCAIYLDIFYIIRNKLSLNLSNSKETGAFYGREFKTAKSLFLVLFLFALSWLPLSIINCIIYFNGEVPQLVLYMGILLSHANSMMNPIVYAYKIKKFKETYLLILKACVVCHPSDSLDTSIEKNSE
Chain of Cholecystokinin receptor type A (Homo sapiens) (P32238 whole entry): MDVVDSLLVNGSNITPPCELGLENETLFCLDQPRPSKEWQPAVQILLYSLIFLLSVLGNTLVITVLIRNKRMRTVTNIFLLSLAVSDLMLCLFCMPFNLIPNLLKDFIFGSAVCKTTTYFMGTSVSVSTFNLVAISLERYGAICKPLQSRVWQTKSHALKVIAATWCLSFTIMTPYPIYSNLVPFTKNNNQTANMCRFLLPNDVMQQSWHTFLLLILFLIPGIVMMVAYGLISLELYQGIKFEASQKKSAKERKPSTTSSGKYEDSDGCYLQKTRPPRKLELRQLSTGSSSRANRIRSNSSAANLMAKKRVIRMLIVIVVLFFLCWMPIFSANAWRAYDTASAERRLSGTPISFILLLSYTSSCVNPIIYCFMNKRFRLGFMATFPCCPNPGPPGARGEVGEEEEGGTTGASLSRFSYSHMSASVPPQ
Chain of 5-hydroxytryptamine receptor 2C (Homo sapiens) (P28335 whole entry): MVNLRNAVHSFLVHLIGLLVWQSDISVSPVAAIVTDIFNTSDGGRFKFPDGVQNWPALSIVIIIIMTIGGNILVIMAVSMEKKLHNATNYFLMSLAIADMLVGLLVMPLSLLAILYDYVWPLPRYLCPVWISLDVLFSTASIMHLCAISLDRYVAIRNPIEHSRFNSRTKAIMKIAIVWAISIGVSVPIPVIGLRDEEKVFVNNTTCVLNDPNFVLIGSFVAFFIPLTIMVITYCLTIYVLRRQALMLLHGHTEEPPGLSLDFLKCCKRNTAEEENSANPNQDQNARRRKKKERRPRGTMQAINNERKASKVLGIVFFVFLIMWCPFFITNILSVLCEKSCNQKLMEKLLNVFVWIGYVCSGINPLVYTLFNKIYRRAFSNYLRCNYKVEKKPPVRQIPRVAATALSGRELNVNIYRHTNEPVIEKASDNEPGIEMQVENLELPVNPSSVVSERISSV
Chain of Beta-2 adrenergic receptor (Homo sapiens) (P07550 whole entry, looked up): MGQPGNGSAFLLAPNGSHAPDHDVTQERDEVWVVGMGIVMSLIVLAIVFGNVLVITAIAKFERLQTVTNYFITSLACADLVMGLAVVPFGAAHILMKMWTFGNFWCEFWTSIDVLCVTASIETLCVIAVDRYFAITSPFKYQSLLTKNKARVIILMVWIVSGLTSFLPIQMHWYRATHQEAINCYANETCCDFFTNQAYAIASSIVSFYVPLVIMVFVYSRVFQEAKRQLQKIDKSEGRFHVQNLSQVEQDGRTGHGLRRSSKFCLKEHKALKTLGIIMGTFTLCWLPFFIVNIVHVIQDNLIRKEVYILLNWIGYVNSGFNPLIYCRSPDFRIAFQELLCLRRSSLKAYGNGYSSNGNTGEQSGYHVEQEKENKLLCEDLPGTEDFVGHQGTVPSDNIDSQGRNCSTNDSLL
Chain of C-C chemokine receptor type 1 (Homo sapiens) (P32246 whole entry): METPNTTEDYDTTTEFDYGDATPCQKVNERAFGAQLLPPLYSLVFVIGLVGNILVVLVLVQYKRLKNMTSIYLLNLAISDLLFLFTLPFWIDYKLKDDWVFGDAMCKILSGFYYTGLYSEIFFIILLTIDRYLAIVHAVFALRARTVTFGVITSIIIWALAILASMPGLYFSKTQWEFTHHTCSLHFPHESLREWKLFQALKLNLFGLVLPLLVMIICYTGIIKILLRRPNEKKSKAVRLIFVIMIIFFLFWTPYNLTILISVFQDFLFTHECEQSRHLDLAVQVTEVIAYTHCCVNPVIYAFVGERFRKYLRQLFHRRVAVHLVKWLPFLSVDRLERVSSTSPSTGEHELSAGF
Chain of Alpha-2A adrenergic receptor (Homo sapiens) (P08913 whole entry): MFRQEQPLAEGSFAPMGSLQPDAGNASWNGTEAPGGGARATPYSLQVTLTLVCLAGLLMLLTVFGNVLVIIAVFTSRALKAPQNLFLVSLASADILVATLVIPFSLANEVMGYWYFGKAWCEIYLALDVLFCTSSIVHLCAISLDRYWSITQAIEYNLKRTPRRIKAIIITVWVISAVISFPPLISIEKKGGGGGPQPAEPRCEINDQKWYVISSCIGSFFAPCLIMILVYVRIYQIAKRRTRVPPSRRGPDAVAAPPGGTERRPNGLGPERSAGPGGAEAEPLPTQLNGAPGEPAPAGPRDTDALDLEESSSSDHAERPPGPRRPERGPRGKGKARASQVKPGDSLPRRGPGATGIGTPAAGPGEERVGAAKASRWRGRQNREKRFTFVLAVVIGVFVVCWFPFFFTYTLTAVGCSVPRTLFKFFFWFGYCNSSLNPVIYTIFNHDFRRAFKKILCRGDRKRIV
Chain of Histamine H1 receptor (Homo sapiens) (P35367 whole entry): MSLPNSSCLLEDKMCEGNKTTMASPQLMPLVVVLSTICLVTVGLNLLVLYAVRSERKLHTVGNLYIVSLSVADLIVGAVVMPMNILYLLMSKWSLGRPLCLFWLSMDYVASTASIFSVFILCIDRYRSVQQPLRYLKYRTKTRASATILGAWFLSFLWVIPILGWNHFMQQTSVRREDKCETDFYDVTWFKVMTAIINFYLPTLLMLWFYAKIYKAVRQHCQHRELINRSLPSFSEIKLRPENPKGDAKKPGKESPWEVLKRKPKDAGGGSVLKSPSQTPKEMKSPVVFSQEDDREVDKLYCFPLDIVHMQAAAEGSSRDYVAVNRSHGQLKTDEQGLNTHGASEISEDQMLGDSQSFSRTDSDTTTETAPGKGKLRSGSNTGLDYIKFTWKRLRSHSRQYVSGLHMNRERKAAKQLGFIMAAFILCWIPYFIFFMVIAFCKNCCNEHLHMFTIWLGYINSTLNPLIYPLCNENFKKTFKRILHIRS
Chain of 5-hydroxytryptamine receptor 6 (Homo sapiens) (P50406 whole entry): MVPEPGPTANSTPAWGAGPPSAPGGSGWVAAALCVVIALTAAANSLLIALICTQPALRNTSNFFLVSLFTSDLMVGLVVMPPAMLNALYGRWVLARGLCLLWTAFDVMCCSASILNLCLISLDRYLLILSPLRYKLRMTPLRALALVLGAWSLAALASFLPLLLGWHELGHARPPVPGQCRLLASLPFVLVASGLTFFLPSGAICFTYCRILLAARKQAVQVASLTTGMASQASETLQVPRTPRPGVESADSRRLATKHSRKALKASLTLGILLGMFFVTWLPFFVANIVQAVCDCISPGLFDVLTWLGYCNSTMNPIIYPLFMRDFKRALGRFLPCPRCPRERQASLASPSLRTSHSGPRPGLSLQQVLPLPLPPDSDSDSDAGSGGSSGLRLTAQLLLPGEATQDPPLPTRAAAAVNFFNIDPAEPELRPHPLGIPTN
Chain of D(4) dopamine receptor (Homo sapiens) (P21917 whole entry): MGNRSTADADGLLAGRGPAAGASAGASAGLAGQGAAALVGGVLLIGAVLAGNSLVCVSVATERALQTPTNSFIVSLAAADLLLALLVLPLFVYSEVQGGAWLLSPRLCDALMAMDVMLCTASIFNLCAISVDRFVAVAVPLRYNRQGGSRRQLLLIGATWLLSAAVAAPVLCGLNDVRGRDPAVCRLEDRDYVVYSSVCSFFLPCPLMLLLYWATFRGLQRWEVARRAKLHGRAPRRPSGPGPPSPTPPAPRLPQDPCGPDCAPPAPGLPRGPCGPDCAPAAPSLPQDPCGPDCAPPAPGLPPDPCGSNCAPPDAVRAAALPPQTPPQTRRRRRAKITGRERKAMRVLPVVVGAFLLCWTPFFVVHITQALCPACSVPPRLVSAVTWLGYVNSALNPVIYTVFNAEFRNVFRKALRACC
Chain of Muscarinic acetylcholine receptor M5 (Homo sapiens) (P08912 whole entry): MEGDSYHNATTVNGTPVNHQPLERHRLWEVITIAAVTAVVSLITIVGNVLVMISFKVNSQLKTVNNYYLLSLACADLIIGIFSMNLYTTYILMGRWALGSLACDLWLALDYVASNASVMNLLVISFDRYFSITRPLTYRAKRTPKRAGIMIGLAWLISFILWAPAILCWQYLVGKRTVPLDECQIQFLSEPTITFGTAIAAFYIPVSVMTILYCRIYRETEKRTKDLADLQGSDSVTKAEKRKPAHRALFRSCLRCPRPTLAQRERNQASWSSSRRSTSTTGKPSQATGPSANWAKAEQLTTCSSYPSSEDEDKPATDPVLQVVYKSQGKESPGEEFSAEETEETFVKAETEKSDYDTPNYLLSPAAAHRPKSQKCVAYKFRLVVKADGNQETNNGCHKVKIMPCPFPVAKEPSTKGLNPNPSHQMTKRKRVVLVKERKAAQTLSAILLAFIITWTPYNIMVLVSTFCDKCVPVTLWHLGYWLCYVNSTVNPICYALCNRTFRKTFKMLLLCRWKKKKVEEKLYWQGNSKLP
Chain of D(1A) dopamine receptor (Homo sapiens) (P21728 whole entry): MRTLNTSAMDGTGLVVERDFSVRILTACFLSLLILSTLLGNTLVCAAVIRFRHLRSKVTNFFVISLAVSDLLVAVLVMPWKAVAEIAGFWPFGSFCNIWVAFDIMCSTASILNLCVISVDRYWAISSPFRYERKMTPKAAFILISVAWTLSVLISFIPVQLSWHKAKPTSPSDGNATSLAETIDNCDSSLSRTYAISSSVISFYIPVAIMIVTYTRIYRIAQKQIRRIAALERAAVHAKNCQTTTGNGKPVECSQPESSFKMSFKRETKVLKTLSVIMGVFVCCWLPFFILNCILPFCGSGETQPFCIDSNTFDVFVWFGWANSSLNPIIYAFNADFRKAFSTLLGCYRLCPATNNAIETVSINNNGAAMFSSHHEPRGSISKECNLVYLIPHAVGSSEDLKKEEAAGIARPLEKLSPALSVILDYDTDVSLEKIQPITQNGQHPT
Chain of Sigma intracellular receptor 2 (Homo sapiens) (Q5BJF2 whole entry): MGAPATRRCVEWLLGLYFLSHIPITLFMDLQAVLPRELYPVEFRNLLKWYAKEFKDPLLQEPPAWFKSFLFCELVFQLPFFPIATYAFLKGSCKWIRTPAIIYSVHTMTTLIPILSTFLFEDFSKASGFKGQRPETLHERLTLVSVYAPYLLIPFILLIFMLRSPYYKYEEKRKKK

On to `O=C(c1nnc(NC2CCCC2)c2cc(Cl)c(Cl)cc12)N1CCC(O)CC1`, for which the inhibition entry in assay [1], in assay [2] and in assay [3] was “inactive” throughout. For the same compound, the inhibition (usually the change of the read-out against control, counted positive when it falls) in assay [4] is 27%; in [5], -3%; in assay [6], 10%; in assay [7], -1%; in [8], 6%; in assay [9], 11%. Further, the inhibition in assay [10] is 13%; in [11] it was 3%; in assay [12], 7%; in assay [13], 13%; in assay [14], -1%; in [15], -1%. For the same compound, the inhibition in assay [16] is -2%; in [17], -4%; in [18] it was -5%; in assay [19] it was -1%; in [20] it was 5%.
As to `Clc1cc2c(NC3CCCC3)nnc(-c3ccncc3)c2cc1Cl`, the inhibition entry in assay [21], in [22] and in assay [23] was “inactive” throughout. Moreover, in assay [24], the result was inactive. The inhibition result in [2], in assay [3] and in assay [25] was “Active” throughout. For the same compound, the inhibition in assay [26] is 1%; in assay [27], -8%; in assay [4], 74%; in [5], 16%; in assay [6], 9%; in assay [7], 5%. The inhibition in assay [8] was 4%; in [9], 3%; in [10] it was 3%; in assay [11], 1%; in assay [12], -2%; in [13], 8%. The inhibition in assay [14] is 2%; in assay [15] it was 1%; in assay [16] it was 1%; in assay [17], -1%; in assay [18], -1%; in [19], -2%. Also, in [20], the inhibition was -6%.

The values above are taken from ChEMBL document CHEMBL5649167, “The SUV4-20 inhibitor A-196 verifies a role for epigenetics in genomic integrity” (Nat Chem Biol, 2017).
